Assay results reported in ChEMBL document CHEMBL6092168, “Identification of novel indolinone derivatives as CTSC inhibitors to treat inflammatory bowel disease by modulating inflammatory factors” (Eur J Med Chem, 2024).
The source made the active and inactive calls. The calls are words filed in the database; no cut-off is given here.

Key:
[1] = Oral bioavailability in male Sprague-Dawley rat at 10 mg/kg measured at 5 to 1440 mins by LC-MS/MS analysis; format: ADME, organism-based; conditions: in vivo, time 5-1440 min
RAW264.7 [2] = experiment: Anti-inflammatory activity in LPS-stimulated mouse RAW264.7 cells assessed as reduction in IL-1 beta production incubated for 24 hrs by ELISA; format: functional, cell-based; conditions: dose 0.62-5 µM
Mus musculus [3] = experiment: Anti-inflammatory activity in DSS-induced ulcerative colitis male C57BL/6 mouse model assessed as reduction in proteinase 3 level in serum at 60 mg/kg administered via gavage for 10 days relative to control; format: functional; set-up: scale not given: the % may be the effect or the level left
Mus musculus [4] = experiment: Anti-inflammatory activity in DSS-induced ulcerative colitis male C57BL/6 mouse model assessed as decrease in body weight loss at 15 mg/kg administered via gavage for 10 days; format: functional, organism-based; conditions: time 10.0 day
Mus musculus [5] = experiment: Anti-inflammatory activity in DSS-induced ulcerative colitis male C57BL/6 mouse model assessed as reduction in IL- 6 expression in serum administered via gavage for 10 days by ELISA; format: functional, organism-based; conditions: dose 15-60 mg/kg, time 10.0 day
Mus musculus [6] = experiment: Anti-inflammatory activity in DSS-induced ulcerative colitis male C57BL/6 mouse model assessed as reduction in TNF-alpha expression in colon administered via gavage for 10 days by ELISA; format: functional, organism-based; conditions: dose 15-60 mg/kg, time 10.0 day
Mus musculus [7] = experiment: Anti-inflammatory activity in DSS-induced ulcerative colitis C57BL/6 mouse model assessed as effect on inflammatory factors at 60 mg/kg, administered twice daily; format: functional, organism-based
Mus musculus [8] = experiment: Anti-inflammatory activity in DSS-induced ulcerative colitis male C57BL/6 mouse model assessed as reduction in Cathepsin C level in colon at 15 to 30 mg/kg administered via gavage for 10 days; format: functional, organism-based; conditions: dose 15-30 mg/kg, time 10.0 day
Mus musculus [9] = experiment: Anti-inflammatory activity in DSS-induced ulcerative colitis male C57BL/6 mouse model assessed as reduction in IL-6 expression in colon administered via gavage for 10 days by ELISA; format: functional, organism-based; conditions: dose 15-60 mg/kg, time 10.0 day
[10] = target: T1, Dipeptidyl peptidase 1 (Mus musculus) (UniProt P97821); experiment: In vivo inhibition of Cathepsin C in C57BL/6 mouse assessed as reduction in cathepsin C activity in bone marrow at 30 mg/kg, po administered once daily for 6 days by fluorescence based microplate reader relative to control; format: functional, organism-based; conditions: time 6.0 day
T1 sequence (whole entry): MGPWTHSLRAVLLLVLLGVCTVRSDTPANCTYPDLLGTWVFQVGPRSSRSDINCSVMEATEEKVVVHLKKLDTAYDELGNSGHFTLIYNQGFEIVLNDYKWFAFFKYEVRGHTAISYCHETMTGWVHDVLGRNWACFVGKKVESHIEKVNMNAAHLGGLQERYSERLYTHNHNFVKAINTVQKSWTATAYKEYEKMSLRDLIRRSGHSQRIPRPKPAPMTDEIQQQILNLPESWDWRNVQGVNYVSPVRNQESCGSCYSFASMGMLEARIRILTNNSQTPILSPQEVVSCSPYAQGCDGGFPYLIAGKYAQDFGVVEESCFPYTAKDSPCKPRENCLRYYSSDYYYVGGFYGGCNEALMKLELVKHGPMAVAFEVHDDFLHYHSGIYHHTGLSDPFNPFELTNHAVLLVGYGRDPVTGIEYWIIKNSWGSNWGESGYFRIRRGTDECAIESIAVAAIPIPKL

Mus musculus [11] = experiment: Anti-inflammatory activity in DSS-induced ulcerative colitis male C57BL/6 mouse model assessed as increase in colon length at 60 mg/kg administered via gavage for 10 days; format: functional, organism-based; conditions: time 10.0 day
Mus musculus [12] = experiment: Anti-inflammatory activity in DSS-induced ulcerative colitis male C57BL/6 mouse model assessed as reduction in neutrophil elastase level in colon at 15 to 30 mg/kg administered via gavage for 10 days; format: functional, organism-based; conditions: dose 15-30 mg/kg, time 10.0 day
[13] = target: T2, Neutrophil elastase (Mus musculus) (UniProt Q3UP87); experiment: In vivo inhibition of neutrophil elastase in C57BL/6 mouse assessed as reduction in neutrophil elastase activity in blood at 30 mg/kg, po administered once daily for 6 days by fluorescence based microplate reader relative to control; format: functional, organism-based; conditions: time 6.0 day
T2 sequence (whole entry): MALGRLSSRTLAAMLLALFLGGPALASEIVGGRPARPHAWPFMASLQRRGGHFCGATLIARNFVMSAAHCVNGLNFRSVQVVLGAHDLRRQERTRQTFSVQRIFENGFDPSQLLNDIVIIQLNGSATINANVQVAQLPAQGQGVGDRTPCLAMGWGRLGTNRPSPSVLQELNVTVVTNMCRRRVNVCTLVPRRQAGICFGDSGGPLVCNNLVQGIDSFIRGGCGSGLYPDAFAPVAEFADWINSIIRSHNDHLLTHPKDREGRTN

RAW264.7 [14] = experiment: Anti-inflammatory activity in LPS-stimulated mouse RAW264.7 cells assessed as reduction in GM-CSF production incubated for 24 hrs by ELISA; format: functional, cell-based; conditions: dose 0.62-5 µM
[15] = target: T3, Myeloblastin (Homo sapiens) (UniProt P24158); experiment: Inhibition of proteinase 3 in human U-937 cells using aminobenzoyl-Val-Ala-Asp-Cys-Ala-Asp-Gln-ethylenediamine 2,4-dinitrophenyl as substrate at 10 uM incubated for 5 days by fluorescence based microplate reader analysis relative to control; format: cell-based; conditions: time 5.0 day
T3 sequence (whole entry): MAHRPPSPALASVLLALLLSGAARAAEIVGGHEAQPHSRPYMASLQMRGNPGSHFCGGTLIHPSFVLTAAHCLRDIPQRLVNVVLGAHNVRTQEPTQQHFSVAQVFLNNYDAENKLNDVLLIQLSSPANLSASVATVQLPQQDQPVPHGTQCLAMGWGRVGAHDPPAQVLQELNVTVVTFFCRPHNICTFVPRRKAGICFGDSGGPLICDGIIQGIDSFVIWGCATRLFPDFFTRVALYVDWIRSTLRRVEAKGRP

Mus musculus [16] = experiment: Anti-inflammatory activity in DSS-induced ulcerative colitis male C57BL/6 mouse model assessed as increase in IL-10 expression in colon administered via gavage for 10 days by ELISA; format: functional, organism-based; conditions: dose 15-60 mg/kg, time 10.0 day
Mus musculus [17] = experiment: Anti-inflammatory activity in DSS-induced ulcerative colitis male C57BL/6 mouse model assessed as increase in colon length administered via gavage for 10 days; format: functional, organism-based; conditions: dose 15-60 mg/kg, time 10.0 day
[18] = AUC (0 to infinity) in male Sprague-Dawley rat at 10 mg/kg, po measured at 5 to 1440 mins by LC-MS/MS analysis; format: ADME, organism-based; conditions: in vivo, time 5-1440 min
Mus musculus [19] = experiment: Anti-inflammatory activity in DSS-induced ulcerative colitis male C57BL/6 mouse model assessed as reduction in Cathepsin C level in serum at 60 mg/kg administered via gavage for 10 days relative to control; format: functional; set-up: scale not given: the % may be the effect or the level left; conditions: time 10 day
Mus musculus [20] = experiment: Anti-inflammatory activity in DSS-induced ulcerative colitis male C57BL/6 mouse model assessed as reduction in cathepsin G level in serum at 15 to 30 mg/kg administered via gavage for 10 days; format: functional, organism-based; conditions: dose 15-30 mg/kg, time 10.0 day
Mus musculus [21] = experiment: Anti-inflammatory activity in DSS-induced ulcerative colitis male C57BL/6 mouse model at 60 mg/kg administered twice daily; format: functional, organism-based
Mus musculus [22] = experiment: Anti-inflammatory activity in DSS-induced ulcerative colitis male C57BL/6 mouse model assessed as reduction in TNF-alpha expression in serum administered via gavage for 10 days by ELISA; format: functional, organism-based; conditions: dose 15-60 mg/kg, time 10.0 day
Mus musculus [23] = experiment: Anti-inflammatory activity in DSS-induced ulcerative colitis male C57BL/6 mouse model assessed as increase in body weight at 60 mg/kg administered via gavage for 10 days; format: functional, organism-based; conditions: time 10.0 day

In the case of `O=C1Nc2c(cccc2-c2ccc(NC3CCOCC3)cc2)/C1=C/c1ccnc2ccccc12`, the F [1] is reported as 29.05%, the Activity (RAW264.7 [2]) is reported as “Dose-dependent-effect” and the Activity (Mus musculus [3]; time 10 day) is reported as 54%. For the same compound, the Activity (Mus musculus [3]; time 10.0 day) was “Active”, the Activity (Mus musculus [4]) was “Active; Weight Loss Was Lower Than In Mesalazine Group” and the Activity (Mus musculus [5]) was “Dose-dependent-effect; Significant Reduction Observed In High Dose Group”. For the same compound, the Activity (Mus musculus [6]) was “Active”, the Activity (Mus musculus [7]) was “Active” and the Activity (Mus musculus [8]) was “inactive”. For the same compound, the Activity (Mus musculus [9]) was “Dose-dependent-effect; Significant Reduction Observed In High Dose Group”, the inhibition [10] was 36.5% and the Activity (Mus musculus [11]) was “Active; Significantly More Effective Than In Mesalazine Treatment Group”. The Activity (Mus musculus [12]) was “inactive”, the inhibition [13] was 42.9% and the Activity (RAW264.7 [14]) was “Dose-dependent-effect”. For the same compound, the inhibition [15] was 33.1%, the Activity (Mus musculus [16]) was “Dose-dependent-effect; Significant Increase Observed In High Dose Group” and the Activity (Mus musculus [17]) was “Dose-dependent-effect”. The AUC [18] was 407.54 ng·h/mL, the Activity (Mus musculus [19]) was 37% and the Activity (Mus musculus [20]) was “inactive”. The Activity (Mus musculus [21]) was “Active; Therapeutic Effect Is Slightly Better Than 5-Asa But Worse Than Azd7986”, the Activity (Mus musculus [22]) was “Dose-dependent-effect; Significant Reduction Observed In High Dose Group” and the Activity (Mus musculus [23]) was “Active”.
